From patent US5593989A, “Tetracyclic 1,4-oxazine compounds” (Adir et Compagnie, priority 1994, dated 1997)

Key:
[1] = test system: cloned rat D3 receptors vs D2 receptors; test: D3 vs D2 binding selectivity, cloned rat receptors
Description: (§1) in vitro: by the technique of binding to human and rat D2 and D3 receptors (expressed independently and in a stable manner in CHO cells);
(§2) The affinity of the compounds for human or rat D3 and D2 receptors (expressed independently and in a stable manner in CHO cells) was determined in membrane preparations using [^125 I]-iodosulpiride as radioligand (Sokoloff et al, op. cit.), raclopride (10 μM) determining the non-specific binding. The results are expressed as IC50. The selectivity is expressed by the ratio of IC50 D2 to IC50 D3.

[2] = test system: cloned human D3 receptors vs D2 receptors; test: D3 vs D2 binding selectivity, cloned human receptors
Description: as §1, §2

D3 receptor = test: Hypothermia induced in rats by 7-OH-DPAT; assay type: in vivo, male Wistar rats; conditions: for ΔT °C.: means ± sem
Description: in vivo: by the capacity of the molecules to modulate hypothermia induced in rats by the D3 dopaminergic agonist, 7-OH-DPAT, control of the body temperature being dependent upon the post-synaptic D3 receptor (M. J. Millan, op. cit.).
The tests were carried out on male Wistar rats weighing 200-250 g, placed in individual cages with free access to food and water. The products were dissolved in distilled water to which several drops of lactic acid are added. The injections were effected in a volume of 1.0 ml/kg by the subcutaneous route. The doses are expressed in base. The rectal temperature of the rats was recorded using a digital thermal probe (Millan et al., J.P.E.T., 1993, 264, p. 1364-1376). The rats were injected with the compound or vehicle, then put back in their cages for 30 minutes. The rats were then given an injection of 7-OH-DPAT (0.16 mg/kg) and put back in their cages. Thirty minutes later, the rectal temperature was measured and the difference to basal values (ΔT° C.) was determined. The inhibitory dose (95% confidence limit) for reducing the effect of 7-OH-DPAT by 50% was calculated according to Finney's method (Statistical Method in Biological Assays, 2nd ed., Hafner Publishing, New York, 1964).

[3] = Forced-swimming test (Porsolt); assay type: in vivo; conditions: for Period of immobility: means ± sem
Description: The procedure has been described in detail by Porsolt et al. (1978).
The experiment was carried out over two days, the test taking place on the second day. On the first day, the animal was placed for 15 minutes in a glass cylinder (30 cm×.O slashed.20 cm) filled with water, the temperature of which is maintained at 25° C. On the second day, the day of the test, the product or the solvent was administered to the animal by the subcutaneous route 30 minutes before the beginning of the test, At T0, the animal was placed in a cylinder filled with water for the 5 minutes the test lasted. The total period (expressed in seconds) of immobility of the animal was measured.
The inhibitory dose (95% confidence limit) for reducing immobility time by 50% was calculated according to Finney's method (Statistical Method in Biological Assays, 2nd ed., Hafner Publishing, New York, 1964).

CCCN1CCO[C@@H]2c3cc4c(cc3CC[C@H]21)CCO4 (relative stereo) [Example 1, trans-3,4,4a,5,6,8,9,11b-octahydrofuro[2,3-b]1,4-oxazino[3,2-h]4-propyl-2H-naphthalene]
selectivity for D3 receptors compared with D2 receptors, ratio of IC50 D2 to IC50 D3 [1]: 44 | selectivity for D3 receptors compared with D2 receptors, ratio of IC50 D2 to IC50 D3 [2]: 45 | inhibitory dose (ID50) for reducing the effect of 7-OH-DPAT by 50% (D3 receptor; 95% confidence limit in brackets, rats): 1.6 (0.7-3.7) mg/kg s.c. | ΔT °C. (D3 receptor; Ex 1 0.16 mg/kg s.c., then 7-OH-DPAT 0.16 mg/kg): -1.8 ± 0.2 °C | ΔT °C. (D3 receptor; Ex 1 0.63 mg/kg s.c., then 7-OH-DPAT 0.16 mg/kg): -1.3 ± 0.2 °C | ΔT °C. (D3 receptor; Ex 1 2.5 mg/kg s.c., then 7-OH-DPAT 0.16 mg/kg, * p < 0.05 versus vehicle/7-OH-DPAT): +0.2 ± 0.2 °C | ΔT °C. (D3 receptor; Ex 1 10.0 mg/kg s.c., then 7-OH-DPAT 0.16 mg/kg, * p < 0.05 versus vehicle/7-OH-DPAT): -0.1 ± 0.2 °C | Period of immobility ([3]; dose 0.63 mg/kg s.c.): 200.8 ± 17.4 s | Period of immobility ([3]; dose 1.25 mg/kg s.c.): 107.1 ± 39.7 s | Period of immobility ([3]; dose 2.5 mg/kg s.c., * p < 0.05): 63.1 ± 12.4 s | Period of immobility ([3]; dose 10.0 mg/kg s.c., * p < 0.05): 28.2 ± 18.1 s | ED50 ([3]; sc, 95% confidence limit in brackets, read-out: inhibitory dose (ID50) for reducing immobility time by 50%): 1.8 mg/kg

CCCN(CCC)[C@@H]1CCc2c(OC)cccc2[C@@H]1C [(+)UH 232]
selectivity for D3 receptors compared with D2 receptors, ratio of IC50 D2 to IC50 D3 [2]: 4.8

CCCN[C@@H]1CCc2c(OC)cccc2[C@@H]1C [AJ 76]
selectivity for D3 receptors compared with D2 receptors, ratio of IC50 D2 to IC50 D3 [2]: 2.2

CCCN(CCC)C1CCc2ccc(O)cc2C1 (stereo not shown) [Example 7-OH-DPAT, reference compound]
selectivity for D3 receptors compared with D2 receptors, ratio of IC50 D2 to IC50 D3 [1]: 53 | ΔT °C. (D3 receptor; injection 1 vehicle, injection 2 7-OH-DPAT 0.16 mg/kg s.c.): -1.4 ± 0.1 °C
